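Where inhibition never reached the appropriate level, the endpoint shown equals the highest concentration tested. Otherwise, values were interpolated linearly from a five-concentration, 48-hour dose response in 96-well plates. The concentration for 50% growth inhibition is given as GI50.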 Calls of active or inactive are those of the source. Cut-off read from the data, not from the text of the source: active = GI50 up to about 1.1 µM and inactive = higher. Where a SMILES comes first, the peptide text is derived from it. [ ]: non-standard residue; d: D form. The star is where a group is joined. NMeF = CN[CH](Cc1ccccc1)C(=O)O; NMeV = CN[CH](C(=O)O)C(C)C; Boc = CC(C)(C)OC(=O)*; OBn = c1ccc(CO*)cc1

As usually defined, the GI50 is the concentration that inhibits growth by half.

Test systems include DMS-273; RXF 631; LXFL 529; KM-20L2; SNB-78; M19-MEL; DLD-1; XF498; HOP-18.
Common to all, as to assay: DTP human tumour cell line panel, 48 h

With `COc1ccc(NC(=O)CC2SC(Nc3ccc(Cl)cc3C)=NC2=O)c([N+](=O)[O-])c1` (stereo unspecified), the GI50 in the assay with DMS-273, with RXF 631, in the assay on LXFL 529, in the assay on KM-20L2, with SNB-78 and in the assay on M19-MEL was > 100 µM (inactive) in each case. Moreover, in the assay with DLD-1, the GI50 was > 100 µM (inactive).
For `c1ccc(CNn2nnc3ccccc32)cc1`, the GI50 with DMS-273, in the assay on XF498, with LXFL 529, with KM-20L2, with SNB-78 and with M19-MEL was > 100 µM (inactive) throughout. Besides, the GI50 in the assay on DLD-1 was > 100 µM (inactive).
For `O=c1c2c(c1=O)-c1ccccc1CN2`, the GI50 in the assay on DMS-273 is > 100 µM (inactive); with XF498, 20.6 µM (inactive); in the assay with LXFL 529 it was > 100 µM (inactive); with KM-20L2, > 100 µM (inactive); in the assay with SNB-78 it was > 100 µM (inactive); with M19-MEL, > 100 µM (inactive). In addition, the GI50 in the assay with DLD-1 was > 100 µM (inactive).
Take `COc1ccc([C@@H]2CC(=O)NCCCNCCCCNCCCN2)cc1`: the GI50 was 59.6 µM (inactive) in the assay with HOP-18; > 100 µM (inactive) with DMS-273; > 100 µM (inactive) in the assay with XF498; > 100 µM (inactive) with LXFL 529; > 100 µM (inactive) in the assay with KM-20L2; > 100 µM (inactive) in the assay with SNB-78. Further, the GI50 in the assay on M19-MEL and with DLD-1 was > 100 µM (inactive) in each case.
With `NC1=NS(=O)(=O)Nc2nc(-c3ccc(Cl)cc3)[nH]c21`, the GI50 in the assay with HOP-18, in the assay with DMS-273, in the assay with LXFL 529, in the assay on KM-20L2, in the assay with M19-MEL and in the assay with DLD-1 was > 100 µM (inactive) throughout.
In the case of `[O-][n+]1c2c([n+]([O-])c3ccccc31)CCCCCCCCCC2`, the GI50 in the assay on DMS-273 was > 100 µM (inactive); with XF498, > 100 µM (inactive); in the assay on LXFL 529 it was 68.1 µM (inactive); in the assay with KM-20L2 it was 17.5 µM (inactive); in the assay with SNB-78 it was > 100 µM (inactive); with M19-MEL it was > 100 µM (inactive). In addition, in the assay with DLD-1, the GI50 was > 100 µM (inactive).
Turning to `Cc1cn(C2OC(C)(CO)C(O)C2O)c(=O)[nH]c1=O` (stereo unspecified), the GI50 in the assay on HOP-18, in the assay with DMS-273, in the assay on LXFL 529, with M19-MEL and in the assay with DLD-1 was > 100 µM (inactive) in each case.
`O=P1(Oc2ccccc2)C(c2ccccc2)C(c2ccccc2)=NN1c1ccccc1` (stereo unspecified): the GI50 is 44.1 µM (inactive) in the assay on HOP-18; 30.3 µM (inactive) in the assay on DMS-273; 43.2 µM (inactive) in the assay with XF498; 35.4 µM (inactive) in the assay on RXF 631; 19.8 µM (inactive) in the assay on LXFL 529; 20.7 µM (inactive) with KM-20L2. Further, the values for the GI50 in the assay with SNB-78, in the assay on M19-MEL and in the assay with DLD-1 were 46.5 µM (inactive), 23.1 µM (inactive) and 18.3 µM (inactive), respectively.
Take `C=C(NC(=O)C(=C)NC(=O)c1csc(C2=NC3c4csc(n4)C4NC(=O)c5csc(n5)C(C(C)(O)C(C)O)NC(=O)C5CSC(=N5)/C(=C/C)NC(=O)C(C(C)O)NC(=O)c5csc(n5)C3(CC2)NC(=O)C(C)NC(=O)C(=C)NC(=O)C(C)NC(=O)C(C(C)CC)NC2C=Cc3c(C(C)O)cc(nc3C2O)C(=O)OC4C)n1)C(N)=O` (stereo unspecified): the GI50 is 2.72 µM (inactive) in the assay on HOP-18; 1.37 µM (inactive) in the assay with DMS-273; 0.355 µM (active) with XF498; 3.61 µM (inactive) in the assay on RXF 631; 0.449 µM (active) in the assay with LXFL 529; 2.84 µM (inactive) in the assay with KM-20L2. Besides, the GI50 is 2.54 µM (inactive) in the assay on SNB-78, 1.37 µM (inactive) with M19-MEL and 1.76 µM (inactive) in the assay on DLD-1.
Take `CC(CN(C)C)C(=O)c1ccccc1` (stereo unspecified): the GI50 in the assay on HOP-18 is > 100 µM (inactive); in the assay on DMS-273 it was > 100 µM (inactive); in the assay on XF498, 21.3 µM (inactive); in the assay on RXF 631, > 86.3 µM (inactive); with LXFL 529 it was 18 µM (inactive); in the assay on KM-20L2, > 51.8 µM (inactive). Also, the results for the GI50 with SNB-78, in the assay on M19-MEL and in the assay with DLD-1 were 31 µM (inactive), 19.1 µM (inactive) and 8.97 µM (inactive), respectively.
For the compound `CC(=O)O[C@]12CCCC1C1(O)C(O)CCCC12` (stereo partly specified), the GI50 in the assay with HOP-18, in the assay on DMS-273, in the assay with XF498, in the assay with LXFL 529, in the assay on KM-20L2 and in the assay on SNB-78 was > 100 µM (inactive) throughout. Further, the GI50 in the assay with M19-MEL is > 100 µM (inactive).
`O=C1C2c3[nH]c4ccccc4c3C3CCCCC3C2C(=O)N1c1ccccc1` (stereo unspecified): the GI50 was 37.2 µM (inactive) with HOP-18; 85.3 µM (inactive) in the assay with DMS-273; > 100 µM (inactive) in the assay on RXF 631; > 100 µM (inactive) in the assay on LXFL 529; 38.3 µM (inactive) in the assay on SNB-78; > 100 µM (inactive) in the assay on M19-MEL. In addition, in the assay with DLD-1, the GI50 was > 100 µM (inactive).
For `Clc1cc(Cl)c2n[se]nc2c1`, the GI50 in the assay on HOP-18, in the assay with DMS-273, with RXF 631, with KM-20L2, in the assay on SNB-78 and in the assay with M19-MEL was > 100 µM (inactive) each time.
Turning to `N#C/C(=C\c1ccc2ccccc2c1)C(=O)c1ccccc1`, the GI50 in the assay on HOP-18 is > 100 µM (inactive); with DMS-273, > 100 µM (inactive); with XF498, > 100 µM (inactive); in the assay on LXFL 529 it was > 86.7 µM (inactive); in the assay on KM-20L2, > 100 µM (inactive); in the assay on SNB-78, > 100 µM (inactive). Further, the GI50 in the assay on M19-MEL is > 87.9 µM (inactive); in the assay with DLD-1, > 100 µM (inactive).
Take `Cc1nc(-c2cccnc2)sc1C(=O)/C=C/c1ccc(Cl)cc1Cl`: the GI50 in the assay with HOP-18, in the assay with DMS-273, with KM-20L2, in the assay with SNB-78, in the assay with M19-MEL and with DLD-1 was > 100 µM (inactive) in each case.
On to `O=C(OC1CCC(=C2SCCCS2)[C@H]1C1SCCCS1)c1ccccc1` (stereo partly specified), for which the GI50 in the assay on DMS-273, in the assay on RXF 631, with LXFL 529, in the assay with KM-20L2, in the assay with M19-MEL and with DLD-1 was > 100 µM (inactive) in each case.
As for `COC1=C2C[C@H](O)C(C)C[C@@]2(OC)OC1=O` (stereo partly specified), the GI50 in the assay with DMS-273, with XF498, in the assay on RXF 631, with LXFL 529, with SNB-78 and in the assay with M19-MEL was > 100 µM (inactive) throughout. The GI50 in the assay with DLD-1 is > 100 µM (inactive).
Take `O=c1ncccn1C1OC(CO)C(O)C1O` (stereo unspecified): the GI50 in the assay on HOP-18, with DMS-273, in the assay with LXFL 529, with KM-20L2, in the assay with SNB-78 and in the assay on M19-MEL was > 100 µM (inactive) in each case. Also, the GI50 with DLD-1 was > 100 µM (inactive).
For `COc1cc(/C=C\c2ccc(C)cc2)cc(OC)c1OC`, the GI50 is 0.0012 µM (active) with DMS-273; 0.00033 µM (active) with XF498; 0.0004 µM (active) with LXFL 529; 0.000117 µM (active) in the assay on KM-20L2; 0.0001 µM (active) in the assay with SNB-78; 0.00197 µM (active) in the assay on M19-MEL. Also, in the assay on DLD-1, the 50% growth inhibitory concentration (GI50) is 0.00237 µM (active).
In the case of `CC(C)C(NC(=O)OC(C)(C)C)C(=O)N(C)C(Cc1ccccc1)C(=O)N(C)C(C(=O)N(C)C(C(=O)OCc1ccccc1)C(C)C)C(C)C` (stereo unspecified) (Boc-V[NMeF][NMeV][NMeV]-OBn; configuration not given here), the GI50 with DMS-273 was 72.8 µM (inactive); in the assay with XF498, 19.4 µM (inactive); with LXFL 529, 7.6 µM (inactive); with KM-20L2 it was > 100 µM (inactive); in the assay on M19-MEL it was > 100 µM (inactive).
Consider `C[C@@](O)(/C=C/[C@H]1CC=CC(=O)O1)[C@@H](C[C@@H](O)\C=C/C=C\C=C\CO)OP(=O)(O)O` [FOSTRIECIN SODIUM], for which the GI50 in the assay on DMS-273 is 6.19 µM (inactive); with XF498 it was 52.5 µM (inactive); in the assay on KM-20L2, 1.03 µM (active); in the assay on SNB-78 it was 15 µM (inactive); with M19-MEL it was 4.17 µM (inactive); with DLD-1, 13.2 µM (inactive).

These data come from ChEMBL document CHEMBL1201862, “PubChem BioAssay data set” (2004).
